Structures are written as SMILES. Where only a bound is given, the exact number is not on record here.

The values below come from PMC6407917, “Identification of GSK3186899/DDD853651 as a Preclinical Development Candidate for the Treatment of Visceral Leishmaniasis” (Journal of Medicinal Chemistry, 2018).

Some targets named below: PRKAG1 (Homo sapiens, UniProt P54619); RIPK2 (Homo sapiens, UniProt O43353); PIM2 (Homo sapiens, UniProt Q9P1W9); TTK (Homo sapiens, UniProt P33981); AURKA (Homo sapiens, UniProt O14965); MARK2 (Homo sapiens, UniProt Q7KZI7); AURKC (Homo sapiens, UniProt Q9UQB9); PIK3C2B (Homo sapiens, UniProt O00750); ACVR1B (Homo sapiens, UniProt P36896); TNIK (Homo sapiens, UniProt Q9UKE5); STK16 (Homo sapiens, UniProt O75716); MAP3K4 (Homo sapiens, UniProt Q9Y6R4); DDR2 (Homo sapiens, UniProt Q16832); TAOK3 (Homo sapiens, UniProt Q9H2K8); MAST2 (Homo sapiens, UniProt Q6P0Q8); DYRK1A (Homo sapiens, UniProt Q13627); EPHA3 (Homo sapiens, UniProt P29320); PIM3 (Homo sapiens, UniProt Q86V86); MAP4K2 (Homo sapiens, UniProt Q12851); PRKCQ (Homo sapiens, UniProt Q04759); PHKG2 (Homo sapiens, UniProt P15735).

Assay in all cases: biochemical
Common to all, as to parameters: species or system HEK293/K-562/placenta mixed human extract; Kinobeads chemoproteomic competition binding, quantified by TMT LC-MS/MS, dose response up to 20 uM

MARK2, sequence (Q7KZI7 whole entry): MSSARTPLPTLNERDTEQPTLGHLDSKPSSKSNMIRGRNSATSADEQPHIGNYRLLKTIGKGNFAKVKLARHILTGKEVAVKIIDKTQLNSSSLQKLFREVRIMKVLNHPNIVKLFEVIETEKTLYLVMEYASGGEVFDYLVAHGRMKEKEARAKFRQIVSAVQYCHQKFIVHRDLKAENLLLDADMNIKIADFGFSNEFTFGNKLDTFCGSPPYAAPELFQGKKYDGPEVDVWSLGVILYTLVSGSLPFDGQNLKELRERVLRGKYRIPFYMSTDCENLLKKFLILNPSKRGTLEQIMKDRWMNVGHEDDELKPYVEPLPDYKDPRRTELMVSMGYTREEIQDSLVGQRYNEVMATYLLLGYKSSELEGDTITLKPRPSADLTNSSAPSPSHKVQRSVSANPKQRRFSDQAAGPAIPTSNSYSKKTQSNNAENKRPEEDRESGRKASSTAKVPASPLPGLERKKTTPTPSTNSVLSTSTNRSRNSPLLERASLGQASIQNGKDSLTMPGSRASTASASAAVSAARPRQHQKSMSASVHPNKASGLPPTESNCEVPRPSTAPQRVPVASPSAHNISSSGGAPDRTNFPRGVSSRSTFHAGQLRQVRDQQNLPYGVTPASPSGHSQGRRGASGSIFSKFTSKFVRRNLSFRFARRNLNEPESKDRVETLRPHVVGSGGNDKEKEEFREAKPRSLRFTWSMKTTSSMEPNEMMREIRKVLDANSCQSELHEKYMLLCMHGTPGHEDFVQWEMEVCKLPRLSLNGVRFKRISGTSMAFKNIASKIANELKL
TTK, sequence (P33981 whole entry): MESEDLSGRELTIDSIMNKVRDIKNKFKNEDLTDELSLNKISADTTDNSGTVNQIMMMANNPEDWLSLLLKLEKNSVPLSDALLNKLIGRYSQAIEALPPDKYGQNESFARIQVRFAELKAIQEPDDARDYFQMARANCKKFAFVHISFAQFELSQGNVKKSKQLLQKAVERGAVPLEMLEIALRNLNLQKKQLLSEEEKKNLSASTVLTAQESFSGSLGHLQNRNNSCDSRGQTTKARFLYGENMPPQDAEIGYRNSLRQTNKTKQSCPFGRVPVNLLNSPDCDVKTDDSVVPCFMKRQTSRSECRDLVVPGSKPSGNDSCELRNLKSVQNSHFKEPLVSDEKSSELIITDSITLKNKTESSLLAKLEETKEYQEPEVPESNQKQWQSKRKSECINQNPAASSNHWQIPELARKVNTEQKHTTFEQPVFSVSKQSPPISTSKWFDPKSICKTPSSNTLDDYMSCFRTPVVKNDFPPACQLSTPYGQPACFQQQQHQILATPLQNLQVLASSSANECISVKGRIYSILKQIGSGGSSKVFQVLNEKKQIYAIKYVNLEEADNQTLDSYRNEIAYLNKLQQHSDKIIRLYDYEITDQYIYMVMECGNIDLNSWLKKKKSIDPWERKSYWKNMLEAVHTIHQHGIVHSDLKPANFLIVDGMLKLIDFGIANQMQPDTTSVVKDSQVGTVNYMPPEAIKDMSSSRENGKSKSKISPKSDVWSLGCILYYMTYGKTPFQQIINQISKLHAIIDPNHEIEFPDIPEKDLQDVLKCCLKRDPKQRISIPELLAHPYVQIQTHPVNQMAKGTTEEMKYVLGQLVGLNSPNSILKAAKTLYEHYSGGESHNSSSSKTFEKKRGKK
STK16, sequence (O75716 whole entry): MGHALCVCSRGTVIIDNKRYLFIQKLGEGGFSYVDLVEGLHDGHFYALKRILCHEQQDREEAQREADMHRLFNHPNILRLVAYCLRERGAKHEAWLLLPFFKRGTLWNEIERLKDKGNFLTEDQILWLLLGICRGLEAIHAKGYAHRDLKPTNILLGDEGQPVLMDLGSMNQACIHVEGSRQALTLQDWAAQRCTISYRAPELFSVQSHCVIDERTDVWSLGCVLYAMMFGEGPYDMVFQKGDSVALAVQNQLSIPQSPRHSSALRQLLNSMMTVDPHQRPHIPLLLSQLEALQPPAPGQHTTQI
AURKC, sequence (Q9UQB9 whole entry): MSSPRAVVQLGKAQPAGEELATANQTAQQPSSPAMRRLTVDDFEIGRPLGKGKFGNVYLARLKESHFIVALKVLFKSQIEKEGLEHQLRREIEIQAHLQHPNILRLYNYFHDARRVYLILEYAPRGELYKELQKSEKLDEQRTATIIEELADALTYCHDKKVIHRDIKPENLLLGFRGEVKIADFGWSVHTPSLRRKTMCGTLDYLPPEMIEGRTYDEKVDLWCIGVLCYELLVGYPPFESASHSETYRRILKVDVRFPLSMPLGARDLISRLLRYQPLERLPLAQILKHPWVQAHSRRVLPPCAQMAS
TAOK3, sequence (Q9H2K8 whole entry): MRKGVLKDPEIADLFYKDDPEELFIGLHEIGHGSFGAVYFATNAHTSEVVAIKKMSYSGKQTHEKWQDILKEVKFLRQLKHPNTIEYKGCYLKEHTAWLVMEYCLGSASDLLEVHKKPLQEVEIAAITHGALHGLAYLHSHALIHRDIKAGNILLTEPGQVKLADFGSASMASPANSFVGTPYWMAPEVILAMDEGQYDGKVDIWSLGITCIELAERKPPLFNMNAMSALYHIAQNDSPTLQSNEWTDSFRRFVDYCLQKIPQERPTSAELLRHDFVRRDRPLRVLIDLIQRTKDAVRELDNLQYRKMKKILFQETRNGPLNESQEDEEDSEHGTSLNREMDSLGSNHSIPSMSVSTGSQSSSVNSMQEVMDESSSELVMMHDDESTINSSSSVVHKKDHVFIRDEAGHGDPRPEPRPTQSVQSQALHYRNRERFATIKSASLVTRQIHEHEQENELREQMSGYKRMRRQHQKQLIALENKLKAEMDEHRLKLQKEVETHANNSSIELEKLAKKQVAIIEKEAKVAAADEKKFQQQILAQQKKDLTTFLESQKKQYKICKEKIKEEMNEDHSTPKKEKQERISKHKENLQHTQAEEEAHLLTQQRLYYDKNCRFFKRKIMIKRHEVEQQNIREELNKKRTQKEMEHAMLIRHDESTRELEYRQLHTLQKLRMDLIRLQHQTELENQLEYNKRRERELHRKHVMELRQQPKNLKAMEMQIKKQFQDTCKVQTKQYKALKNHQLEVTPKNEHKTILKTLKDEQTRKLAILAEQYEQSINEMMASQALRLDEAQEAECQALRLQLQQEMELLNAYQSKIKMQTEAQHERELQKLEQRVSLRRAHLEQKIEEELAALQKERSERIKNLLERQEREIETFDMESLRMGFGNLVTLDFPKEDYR
TNIK, sequence (Q9UKE5 whole entry): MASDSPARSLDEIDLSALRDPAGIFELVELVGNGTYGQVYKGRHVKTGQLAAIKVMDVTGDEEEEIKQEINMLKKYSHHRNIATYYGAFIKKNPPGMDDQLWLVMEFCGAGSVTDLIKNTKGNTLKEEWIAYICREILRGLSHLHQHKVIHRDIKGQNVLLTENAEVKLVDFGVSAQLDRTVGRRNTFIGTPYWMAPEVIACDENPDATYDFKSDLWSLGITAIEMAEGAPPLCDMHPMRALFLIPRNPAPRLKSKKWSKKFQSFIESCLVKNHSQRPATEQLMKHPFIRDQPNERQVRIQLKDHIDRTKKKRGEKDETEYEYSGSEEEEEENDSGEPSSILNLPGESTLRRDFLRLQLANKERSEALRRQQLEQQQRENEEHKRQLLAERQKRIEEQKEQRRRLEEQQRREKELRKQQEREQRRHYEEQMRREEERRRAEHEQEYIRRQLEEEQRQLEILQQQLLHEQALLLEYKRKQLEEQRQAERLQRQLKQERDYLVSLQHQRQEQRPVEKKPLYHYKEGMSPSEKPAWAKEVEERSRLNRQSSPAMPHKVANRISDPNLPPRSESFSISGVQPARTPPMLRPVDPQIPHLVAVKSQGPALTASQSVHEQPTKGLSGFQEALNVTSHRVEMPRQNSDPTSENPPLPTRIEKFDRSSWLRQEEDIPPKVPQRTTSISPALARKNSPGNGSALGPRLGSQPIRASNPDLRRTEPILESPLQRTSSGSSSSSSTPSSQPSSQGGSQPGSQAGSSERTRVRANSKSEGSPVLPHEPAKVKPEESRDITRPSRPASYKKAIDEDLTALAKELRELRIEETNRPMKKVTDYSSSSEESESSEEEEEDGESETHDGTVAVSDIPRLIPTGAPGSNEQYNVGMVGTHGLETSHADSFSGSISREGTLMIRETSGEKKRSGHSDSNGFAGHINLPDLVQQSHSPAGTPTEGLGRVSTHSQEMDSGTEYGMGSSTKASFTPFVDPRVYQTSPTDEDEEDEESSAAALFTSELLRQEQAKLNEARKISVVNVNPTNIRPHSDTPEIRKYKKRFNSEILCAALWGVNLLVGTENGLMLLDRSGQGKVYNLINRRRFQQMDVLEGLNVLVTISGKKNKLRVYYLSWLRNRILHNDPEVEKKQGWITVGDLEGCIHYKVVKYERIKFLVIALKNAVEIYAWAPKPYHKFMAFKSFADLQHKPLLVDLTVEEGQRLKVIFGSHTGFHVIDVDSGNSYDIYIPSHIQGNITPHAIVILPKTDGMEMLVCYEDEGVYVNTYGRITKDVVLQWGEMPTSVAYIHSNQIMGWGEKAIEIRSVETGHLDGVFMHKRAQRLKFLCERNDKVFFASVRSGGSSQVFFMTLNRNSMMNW
RIPK2, sequence (O43353 whole entry): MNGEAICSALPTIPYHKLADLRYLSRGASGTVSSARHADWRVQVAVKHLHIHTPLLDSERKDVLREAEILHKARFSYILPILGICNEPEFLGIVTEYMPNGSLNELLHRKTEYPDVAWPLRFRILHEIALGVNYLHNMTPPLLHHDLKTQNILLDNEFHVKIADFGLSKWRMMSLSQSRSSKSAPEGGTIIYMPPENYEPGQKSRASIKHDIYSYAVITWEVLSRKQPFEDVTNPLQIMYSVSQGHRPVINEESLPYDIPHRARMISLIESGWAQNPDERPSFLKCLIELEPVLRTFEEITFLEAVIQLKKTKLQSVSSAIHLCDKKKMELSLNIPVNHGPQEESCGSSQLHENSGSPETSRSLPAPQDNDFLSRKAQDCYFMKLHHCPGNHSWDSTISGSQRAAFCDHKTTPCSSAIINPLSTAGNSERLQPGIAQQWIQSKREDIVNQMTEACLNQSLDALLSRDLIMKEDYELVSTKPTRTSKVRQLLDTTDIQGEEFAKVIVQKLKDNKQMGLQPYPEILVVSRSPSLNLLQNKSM

For the compound `COc1ccccc1-c1n[nH]c2nc(N[C@H]3CC[C@H](NS(=O)(=O)CCC(F)(F)F)CC3)nc(OC)c12` [compound 31, 3,3,3-Trifluoro-N-(trans-4-((4-methoxy-3-(2-methoxyphenyl)-1H-pyrazolo[3,4-d]pyrimidin-6-yl)amino)cyclohexyl)propane-1-sulfonamide], the IC50 at PRKAG1, at RIPK2, at PIM2, on TTK, at AURKA and at MARK2 was not below 20 µM each time. Moreover, the IC50 at AURKC, on PIK3C2B, at ACVR1B, at TNIK, on STK16 and on MAP3K4 was not below 20 µM each time. In addition, the concentration for half-maximal inhibition (IC50) at DDR2 was not below 20 µM; on TAOK3 it was 0.93 µM; on MAST2, not below 20 µM; on DYRK1A it was not below 20 µM; at EPHA3, not below 20 µM; at PIM3, not below 20 µM. Further, the 50% inhibitory concentration (IC50) on MAP4K2, at PRKCQ and on PHKG2 was not below 20 µM each time.

The term IC50 denotes the concentration needed to halve the response being measured.
